Measurements as given in patent publication US20170216296A1, “METHODS OF TREATING HYPERGLYCEMIA” (Concert Pharmaceuticals, Inc., priority 2014, published 2017).

How the values were obtained:
HbAlc [1] = test: Phase 2 placebo-controlled clinical trial, HbAlc in whole blood; format: in vivo, human; settings: for least square mean HbAlc value: 600 mg twice daily, preliminary, FIG. 1
Procedure: A Phase 2 placebo-controlled clinical trial of Compound (V) was conducted in patients with type 2 diabetic kidney disease and macroalbuminuria. The purpose of the trial was to compare Compound (V) to placebo in terms of safety and efficacy with respect to measures of renal function such as urinary albumin to creatinine ratio, serum creatinine levels, and estimated glomerular filtration rate. HbAlc was measured but was not an intended endpoint of the trial. Thus, while the study was controlled for other medications, it was not controlled for anti-glycemic medications nor were the placebo and treated groups matched for baseline HbAlc levels.
All patients enrolled in the clinical trial were concurrently treated with angiotensin modulators. The clinical trial consists of three parts, two of which were completed and a third part that is on-going. Part 1 was a double-blind, parallel, two-arm, placebo-controlled study evaluating the safety and efficacy of 600 mg of Compound (V) twice daily for 24 weeks. 182 patients were enrolled in this first part of the trial. Part 2 was a blinded 24-week extension study in which all patients who completed Part 1 were eligible to continue receiving 600 mg of Compound (V) or placebo twice daily. 143 patients were enrolled in this part of the clinical trial and have completed dosing. 123 of the 143 patients that were enrolled in Part 2 of the clinical trial completed Part 2. The combined 48 weeks of data from Parts 1 and 2 of the clinical trial have been analyzed. 102 patients enrolled in Part 3 which is a 48 week open-label extension study that is on-going. All patients who completed Part 2 were eligible to receive 600 mg of Compound (V) twice daily.
The key criteria for patients to be included in the clinical trial were (a) eGFR from 23 to 89 mL/min/1.73 m2, a measure of kidney function which indicates mild to moderately severe type 2 diabetic kidney disease; (b) having been on a stable angiotensin modulation regimen for a minimum of four weeks prior to initiating screening and nine weeks prior to initiating dosing; (c) blood pressure less than or equal to 145/90 mm Hg; (d) glycosylated hemoglobin Alc (HbAlc) less than or equal to 10.5%; and (e) UACR greater than or equal to 200 mg/g in male patients and 300 mg/g in female patients, ratios of albumin to creatinine that are indicative of substantial kidney damage in men and women, but not more than 5,000 mg/g, a ratio indicative of severe kidney disease. HbAlc in whole blood samples was measured by ion-exchange chromatography using a TOSOH HLC-723G8 HPLC analyzer.
The procedure is similar to the one described in the Laboratory Procedure Manual of the Centers for Disease Control and Prevention. See www.cdc.gov/nchs/data/nhanes/nhanes_11_12/GHB_met_G_Tosoh_G8.pdf. The TOSOH instrument can reliably detect HbAlc levels in the range of 4.0-16.8%.
Patients were sampled at weeks 0, 12, 24, 36 and 48 weeks (see FIG. 1). The value at 0 weeks was calculated as the mean of values recorded on Days −28, −7 and −1. In other words, the patients were tested 4 weeks before the trial, one week before the trial and one day before. The mean value of the measurements was recorded as Day 0 for the trial.

HbAlc [2] = settings: 100 patients with type 2 diabetes; cited from earlier work

SMILES | lowering of HbAlc in the treated group relative to placebo (HbAlc [1]; Part 1 and Part 2 (48 weeks), p=0.0001) | least square mean HbAlc value (HbAlc [1]; after Part 1 and Part 2 of the trial (48 weeks)) | least square mean HbAlc value (HbAlc [1]; beginning of the trial (week 0, mean of Days -28, -7 and -1), patients with type 2 diabetic kidney disease and macroalbuminuria) | effect on hemoglobin glycosylation (HbAlc [1]; group receiving compound, sampled at weeks 0, 12, 24, 36 and 48) | drop in AlC (HbAlc [1]; overall group change from baseline, FIG. 2 (week 12), placebo 0.23 increase, statistically significant) | patients with lower HbAlc after 12 weeks (HbAlc [1]; week 12 change from baseline, number of patients/patients in arm, FIG. 2, placebo 33/79) | effect on HbAlC (HbAlc [2])
[2H]C([2H])([2H])[C@H](O)C([2H])([2H])CCCn1c(=O)c2c(ncn2C)n(C)c1=O [Compound (V)] | statistically significant | 7.1 | 7.7 | positive effect | 0.35 | 57/83 | –
CC(=O)CCCCn1c(=O)c2c(ncn2C)n(C)c1=O [Pentoxifylline] | – | – | – | – | – | – | no effect
